Patent publication US20190022089A1, “PHARMACEUTICAL COMPOSITIONS AND DOSAGE FORMS” (Ignyta, Inc., priority 2017, published 2019)

Columns and labels:
[1] = Suitability of acids in 1:1 admixture: storage stability (appearance, HPLC); type: physicochemical; conditions: for Most abundant impurity (area %): three months storage, HPLC
Procedure: The mixtures were prepared in duplicate for each sample, and stored in open top, 4 mL glass vials at (1) 60° C./dry heat and (2) 40° C. and 75% relative humidity (RH).
All admixture samples and the control samples stored at the 60° C. and dry heat condition remained as dry powders.
The HPLC traces analyses were conducted on an Agilent 1100 LC, equipped with Agilent Diode Array Detector and Chemstation Software using the conditions found in the table below.

[2] = Comparative pharmacokinetic study of F1 and F2 formulations; type: in vivo, human; conditions: 800 mg fixed dose, 23 healthy subjects
Procedure: A comparative pharmacokinetic study in healthy, human subjects was conducted comparing a 200 mg dosage strength of pharmaceutical composition F1 (as described in Example 11) with a 200 mg dosage strength pharmaceutical composition F2 (as described in Example 10).
Pharmaceutical compositions F1 and F2, along with and lansoprazole, were administered orally with approximately 240 mL of water, according to the randomization scheme. Lansoprazole was administered as 30 mg lansoprazole delayed-release capsules.
Subjects were randomized into two groups, A and B. Periods 1 and 2 were conducted as a crossover design under fasting conditions where all subjects received F1 and F2. […] A representative summary of Periods 1, 2, and 3 and the pharmaceutical compositions subjects in groups A and B will receive in each Period is found below.
Subjects were randomized and received 3 out of 4 treatments in one of the following sequences: […] (i.e., Periods 1 and 2 were conducted as a crossover design under fasting conditions [Treatments A and B]). […] Each subject received each of the 3 assigned treatments on one occasion.
Treatment A: 30 mg lansoprazole (1×30 mg capsule), for 9 consecutive days (within ±1 hour of dosing time on Day 1), with 800 mg F1 (4×200 mg capsules) administered under fasting conditions 1.5 hours after administration of lansoprazole on Day 4. […]

[3] = Single-dose food effect study in dogs; type: in vivo; conditions: formulation that did not comprise at least one acidulant
Excerpt: Such food effects can cause difficulty during human testing of drugs as the fed or fasted condition of the patient can cause exposure or bioavailability of drugs to vary widely.

[4] = system: cancer having at least one molecular alteration in one or more of ALK, ROS1, TrkA, TrkB and TrkC; assay: Early clinical studies in humans (antitumor effects); type: in vivo; conditions: patients having various forms of cancer
TrkB = TrkB (Homo sapiens, UniProt Q16620); conditions: cited from earlier work
TrkC = TrkC (Homo sapiens, UniProt Q16288); conditions: cited from earlier work
ALK = ALK (Homo sapiens, UniProt Q9UM73); conditions: cited from earlier work
[5] = Early clinical studies in humans, formulation without acidulant (exposure); conditions: for AUC higher when taken with food: formulation without acidulant

Sequence of TrkC (Q16288 32-839): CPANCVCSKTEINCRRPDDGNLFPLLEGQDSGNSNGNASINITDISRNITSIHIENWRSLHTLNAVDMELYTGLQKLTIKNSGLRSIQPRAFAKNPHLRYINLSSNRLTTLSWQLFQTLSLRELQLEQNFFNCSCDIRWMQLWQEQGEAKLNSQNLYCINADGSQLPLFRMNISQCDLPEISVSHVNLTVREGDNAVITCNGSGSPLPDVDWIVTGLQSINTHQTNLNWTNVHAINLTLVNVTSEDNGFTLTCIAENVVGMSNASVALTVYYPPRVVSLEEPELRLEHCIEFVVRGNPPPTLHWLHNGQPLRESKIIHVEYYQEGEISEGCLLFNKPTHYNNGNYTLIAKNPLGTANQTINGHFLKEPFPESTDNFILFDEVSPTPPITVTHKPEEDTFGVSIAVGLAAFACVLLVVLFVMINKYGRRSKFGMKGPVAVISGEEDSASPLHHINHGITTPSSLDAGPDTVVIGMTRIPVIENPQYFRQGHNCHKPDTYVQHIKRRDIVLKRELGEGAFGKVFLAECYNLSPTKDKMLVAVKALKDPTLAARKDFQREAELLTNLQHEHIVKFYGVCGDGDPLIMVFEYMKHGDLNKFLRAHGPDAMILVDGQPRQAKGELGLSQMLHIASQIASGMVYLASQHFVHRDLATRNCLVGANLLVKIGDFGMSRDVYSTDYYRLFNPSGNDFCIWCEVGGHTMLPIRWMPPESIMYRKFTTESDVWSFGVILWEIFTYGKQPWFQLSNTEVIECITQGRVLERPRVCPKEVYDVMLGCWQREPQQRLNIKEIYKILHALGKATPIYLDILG
Sequence of ALK (Q9UM73 19-1620): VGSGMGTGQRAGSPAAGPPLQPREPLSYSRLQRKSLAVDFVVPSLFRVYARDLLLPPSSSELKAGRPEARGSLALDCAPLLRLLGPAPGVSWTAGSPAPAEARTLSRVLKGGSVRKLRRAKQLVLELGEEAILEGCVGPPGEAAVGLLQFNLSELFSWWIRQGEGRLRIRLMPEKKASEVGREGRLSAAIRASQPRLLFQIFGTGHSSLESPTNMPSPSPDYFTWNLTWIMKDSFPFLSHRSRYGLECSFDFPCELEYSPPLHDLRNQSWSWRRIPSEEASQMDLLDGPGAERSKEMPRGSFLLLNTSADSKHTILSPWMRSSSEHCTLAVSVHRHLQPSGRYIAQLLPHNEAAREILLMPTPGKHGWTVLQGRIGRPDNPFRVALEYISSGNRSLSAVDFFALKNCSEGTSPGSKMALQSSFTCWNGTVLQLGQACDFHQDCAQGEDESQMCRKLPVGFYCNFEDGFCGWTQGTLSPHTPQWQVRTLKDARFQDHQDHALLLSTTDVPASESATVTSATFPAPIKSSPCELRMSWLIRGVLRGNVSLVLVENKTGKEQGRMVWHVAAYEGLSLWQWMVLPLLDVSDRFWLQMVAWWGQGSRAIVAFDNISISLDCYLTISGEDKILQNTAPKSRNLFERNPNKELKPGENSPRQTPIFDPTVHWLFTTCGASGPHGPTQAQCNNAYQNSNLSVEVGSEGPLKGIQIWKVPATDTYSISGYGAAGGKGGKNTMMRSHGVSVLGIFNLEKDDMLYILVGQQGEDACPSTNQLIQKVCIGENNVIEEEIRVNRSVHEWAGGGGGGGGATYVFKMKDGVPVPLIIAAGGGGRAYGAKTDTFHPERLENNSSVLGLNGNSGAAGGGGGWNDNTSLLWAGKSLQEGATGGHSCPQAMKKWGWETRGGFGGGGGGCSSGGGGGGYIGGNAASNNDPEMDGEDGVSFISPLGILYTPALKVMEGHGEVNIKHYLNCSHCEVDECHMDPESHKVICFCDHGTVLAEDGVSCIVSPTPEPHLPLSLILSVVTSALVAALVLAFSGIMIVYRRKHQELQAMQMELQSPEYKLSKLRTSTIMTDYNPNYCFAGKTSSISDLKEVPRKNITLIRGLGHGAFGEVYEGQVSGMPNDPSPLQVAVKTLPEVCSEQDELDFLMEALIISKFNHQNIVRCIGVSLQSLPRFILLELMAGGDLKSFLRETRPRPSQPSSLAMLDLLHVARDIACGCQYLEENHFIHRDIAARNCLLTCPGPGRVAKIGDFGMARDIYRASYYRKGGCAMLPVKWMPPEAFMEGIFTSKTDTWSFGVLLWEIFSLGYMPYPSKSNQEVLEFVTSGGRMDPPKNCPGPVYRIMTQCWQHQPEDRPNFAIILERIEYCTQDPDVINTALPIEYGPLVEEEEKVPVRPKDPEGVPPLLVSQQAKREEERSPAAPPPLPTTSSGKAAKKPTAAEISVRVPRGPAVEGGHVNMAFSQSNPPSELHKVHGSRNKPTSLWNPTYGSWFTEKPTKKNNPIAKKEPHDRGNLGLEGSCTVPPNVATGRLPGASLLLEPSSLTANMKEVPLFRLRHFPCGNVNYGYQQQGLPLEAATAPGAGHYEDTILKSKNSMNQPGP
Sequence of TrkB (Q16620 32-822): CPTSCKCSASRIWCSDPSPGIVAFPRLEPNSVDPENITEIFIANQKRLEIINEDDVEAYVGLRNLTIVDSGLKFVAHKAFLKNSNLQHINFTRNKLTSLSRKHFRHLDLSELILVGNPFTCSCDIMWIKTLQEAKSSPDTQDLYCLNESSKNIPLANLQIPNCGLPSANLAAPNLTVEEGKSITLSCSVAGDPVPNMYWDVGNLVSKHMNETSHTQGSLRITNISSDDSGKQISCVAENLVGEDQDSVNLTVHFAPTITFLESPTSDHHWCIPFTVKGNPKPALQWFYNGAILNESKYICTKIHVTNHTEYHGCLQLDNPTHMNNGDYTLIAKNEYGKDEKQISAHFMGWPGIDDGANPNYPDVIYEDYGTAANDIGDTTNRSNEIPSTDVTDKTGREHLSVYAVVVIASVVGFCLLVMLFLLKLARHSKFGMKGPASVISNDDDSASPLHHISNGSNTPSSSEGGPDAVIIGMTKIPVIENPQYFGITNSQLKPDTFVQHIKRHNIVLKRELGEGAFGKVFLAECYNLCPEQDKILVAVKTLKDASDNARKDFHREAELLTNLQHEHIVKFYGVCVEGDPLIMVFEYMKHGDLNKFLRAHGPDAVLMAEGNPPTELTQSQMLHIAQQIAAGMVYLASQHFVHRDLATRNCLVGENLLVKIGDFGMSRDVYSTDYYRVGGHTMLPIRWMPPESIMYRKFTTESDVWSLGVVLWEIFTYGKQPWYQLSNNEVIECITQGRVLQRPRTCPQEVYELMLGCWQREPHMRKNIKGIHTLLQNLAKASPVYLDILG

Most abundant impurity (area %) ([1]; 40° C./75% RH, listed as Control): 0.13%
Most abundant impurity (area %) ([1]; 60° C. Dry Heat): 0.13%
physical state observed ([1]; 13 days of storage, 40° C. and 75% RH): remained dry
exposure levels, fed compared to fasting conditions [3]: approximately 2 fold
AUC higher when taken with food ([5]; 200 mg/m^2/day): approximately 200%
AUC higher when taken with food ([5]; 400 mg/m^2/day): ~50%
Cmax higher with food ([5]; both doses (200 and 400 mg/m^2/day)): approximately 150%
exposures with concomitant proton pump inhibitor drugs (PPIs), such as lansoprazole ([5]; some patients): variable
SMILES: CN1CCN(c2ccc(C(=O)Nc3n[nH]c4ccc(Cc5cc(F)cc(F)c5)cc34)c(NC3CCOCC3)c2)CC1 [N-[5-(3,5-difluorobenzyl)-1H-indazol-3-yl]-4-(4-methyl-piperazin-1-yl)-2-(tetrahydro-pyran-4-ylamino)-benzamide]
correlation of total exposure with body weight or body surface area [2]: did not correlate with body weight or body surface area
antitumor effects [4]: antitumor effects
inhibition (TrkB): potent inhibitor
inhibition (TrkC): potent inhibitor
inhibition (ALK): potent inhibitor
